One series concerns the target Cytochrome P450 3A4 (Homo sapiens, UniProt P08684). Kind of series: Inhibition of CYP3A4. The series is classed as ADME.
Another series deals with T1, Androgen receptor (Homo sapiens, UniProt P10275).
T1 sequence (P10275 whole entry): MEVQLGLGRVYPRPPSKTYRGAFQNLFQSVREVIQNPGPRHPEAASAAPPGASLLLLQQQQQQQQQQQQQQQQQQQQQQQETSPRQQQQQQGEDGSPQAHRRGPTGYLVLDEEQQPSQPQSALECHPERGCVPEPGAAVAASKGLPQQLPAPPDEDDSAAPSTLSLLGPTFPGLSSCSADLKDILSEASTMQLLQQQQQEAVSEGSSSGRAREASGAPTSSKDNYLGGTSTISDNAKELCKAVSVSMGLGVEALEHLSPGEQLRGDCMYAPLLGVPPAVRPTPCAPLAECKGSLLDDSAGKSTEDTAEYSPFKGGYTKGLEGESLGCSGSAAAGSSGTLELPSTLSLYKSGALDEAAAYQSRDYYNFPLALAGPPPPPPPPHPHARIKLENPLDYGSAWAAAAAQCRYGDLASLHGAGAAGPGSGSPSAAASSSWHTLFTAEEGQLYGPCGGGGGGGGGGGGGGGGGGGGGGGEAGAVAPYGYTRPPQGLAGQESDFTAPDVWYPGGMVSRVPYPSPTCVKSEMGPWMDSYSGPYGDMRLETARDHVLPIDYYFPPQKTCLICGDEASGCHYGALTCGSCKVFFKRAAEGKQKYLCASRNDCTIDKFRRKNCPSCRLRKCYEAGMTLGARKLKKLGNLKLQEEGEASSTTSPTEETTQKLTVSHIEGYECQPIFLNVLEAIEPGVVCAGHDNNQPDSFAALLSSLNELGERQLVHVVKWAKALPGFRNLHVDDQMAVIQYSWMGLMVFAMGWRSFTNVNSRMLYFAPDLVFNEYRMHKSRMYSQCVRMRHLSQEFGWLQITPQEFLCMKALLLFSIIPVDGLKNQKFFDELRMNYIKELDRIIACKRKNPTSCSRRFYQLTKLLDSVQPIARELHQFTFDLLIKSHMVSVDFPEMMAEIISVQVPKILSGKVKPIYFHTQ
Briefly: Antagonist activity at androgen receptor LBD expressed in human HUH7 cells coexpressing GAL4 by luciferase reporter gene assay. In kind it is functional, cell-based, Huh-7.

Another series addresses Cytochrome P450 2C9 (Homo sapiens, UniProt P11712). Kind of series: Inhibition of CYP2C9. The series is classed as ADME.
Another series addresses Cytochrome P450 2D6 (Homo sapiens, UniProt P10635). Kind of series: Inhibition of CYP2D6. The series is classed as ADME.
Series [1] concerns Rattus norvegicus. Kind of series: Protection of renal injury in Dahl salt-sensitive rat model assessed as reduction of urinal albumin excretion at 60 mg/kg, po bid for 21 days. In kind it is functional, organism-based. On the set-up: dose 60 mg/kg.
Series [2] concerns Rattus norvegicus. Briefly: Antihypertensive activity in Dahl salt-sensitive rat model assessed as decrease of systolic blood pressure at 60 mg/kg, po bid for 21 days. The series is classed as functional, organism-based. On the set-up: dose 60 mg/kg. Conditions: Artery.
Series [3] is described as follows: Half life in Sprague-Dawley rat at 5 mg/kg, iv. In kind it is ADME, organism-based. Further details: dose 5 mg/kg, route intravenous. The note with it: in vivo.
Series [4] can be described thus: Clearance in Sprague-Dawley rat at 5 mg/kg, iv. Conditions: in vivo. The series is classed as ADME, organism-based. Further details: dose 5 mg/kg, route intravenous.
The nature of series [5]: Volume of distribution at steady state in Sprague-Dawley rat at 5 mg/kg, iv. The series is classed as ADME, organism-based. On the set-up: dose 5 mg/kg, route intravenous. The note with it: in vivo, read-out: Vdss.

The text below walks through data of ChEMBL document CHEMBL1212896, “Discovery of novel cyanodihydropyridines as potent mineralocorticoid receptor antagonists” (J Med Chem, 2010).

Activity calls are given as the source filed them. The calls are words filed in the database; no cut-off is given here. Some results are limits rather than exact numbers.

Cytochrome P450 3A4, sequence (P08684 whole entry): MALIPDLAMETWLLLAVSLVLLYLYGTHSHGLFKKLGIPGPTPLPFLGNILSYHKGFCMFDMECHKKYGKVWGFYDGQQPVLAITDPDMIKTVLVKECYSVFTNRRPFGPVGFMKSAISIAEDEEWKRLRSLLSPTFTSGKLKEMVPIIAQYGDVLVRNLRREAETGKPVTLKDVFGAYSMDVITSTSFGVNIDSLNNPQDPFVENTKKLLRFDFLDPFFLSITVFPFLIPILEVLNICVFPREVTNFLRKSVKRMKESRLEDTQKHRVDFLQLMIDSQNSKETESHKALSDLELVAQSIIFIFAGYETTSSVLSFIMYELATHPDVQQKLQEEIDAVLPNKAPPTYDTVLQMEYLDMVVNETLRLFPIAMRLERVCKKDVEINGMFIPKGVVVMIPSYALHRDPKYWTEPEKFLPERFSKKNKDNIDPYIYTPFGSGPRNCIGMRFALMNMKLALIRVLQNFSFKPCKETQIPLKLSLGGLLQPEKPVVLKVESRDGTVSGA
Cytochrome P450 2C9, sequence (P11712 whole entry): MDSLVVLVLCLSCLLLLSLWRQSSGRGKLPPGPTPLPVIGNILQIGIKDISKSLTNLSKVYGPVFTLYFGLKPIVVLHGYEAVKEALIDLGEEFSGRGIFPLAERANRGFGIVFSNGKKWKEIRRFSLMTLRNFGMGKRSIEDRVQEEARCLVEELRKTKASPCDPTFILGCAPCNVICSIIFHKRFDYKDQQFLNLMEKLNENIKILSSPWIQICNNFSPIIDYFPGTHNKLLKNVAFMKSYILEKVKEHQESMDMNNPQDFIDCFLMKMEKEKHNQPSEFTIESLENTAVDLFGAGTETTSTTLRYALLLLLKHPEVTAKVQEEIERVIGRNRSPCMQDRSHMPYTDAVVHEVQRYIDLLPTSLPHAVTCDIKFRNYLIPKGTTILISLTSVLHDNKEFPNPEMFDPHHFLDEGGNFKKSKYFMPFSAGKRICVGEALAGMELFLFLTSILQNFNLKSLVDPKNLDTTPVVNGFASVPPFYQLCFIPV
Cytochrome P450 2D6, sequence (P10635 whole entry): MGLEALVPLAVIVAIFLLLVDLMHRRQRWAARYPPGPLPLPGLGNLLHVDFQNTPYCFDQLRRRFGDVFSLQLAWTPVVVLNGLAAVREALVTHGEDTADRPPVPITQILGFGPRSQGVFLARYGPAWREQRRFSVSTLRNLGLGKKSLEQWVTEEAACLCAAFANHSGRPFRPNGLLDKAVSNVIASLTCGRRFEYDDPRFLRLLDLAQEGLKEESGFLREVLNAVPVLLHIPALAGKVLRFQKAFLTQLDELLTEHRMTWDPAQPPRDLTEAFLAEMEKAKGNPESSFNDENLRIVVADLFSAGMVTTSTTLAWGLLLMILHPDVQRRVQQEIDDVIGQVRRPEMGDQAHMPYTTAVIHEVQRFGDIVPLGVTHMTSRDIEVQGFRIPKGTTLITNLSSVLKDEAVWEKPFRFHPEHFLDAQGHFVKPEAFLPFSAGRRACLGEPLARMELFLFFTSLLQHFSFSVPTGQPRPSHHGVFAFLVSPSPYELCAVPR

Consider `CCCC1=C(C(=O)OC)C(c2ccccc2Cl)C(C#N)=C(C)N1` (stereo not given), for which the “inhibition (INH)” value was 71% against Cytochrome P450 3A4, 83% at Cytochrome P450 2C9 and 19% at Cytochrome P450 2D6. The compound also registered an IC50 against Androgen receptor of 300 nM.

With `COC(=O)C1=C(C)NC(C)=C(C#N)C1c1ccc(F)cc1Cl` (stereo not given), the “inhibition (INH)” value on Cytochrome P450 3A4 is given as 40%; at Cytochrome P450 2C9, 44%; at Cytochrome P450 2D6, 0%. The IC50 against Androgen receptor worked out at 300 nM.

For the compound `COC(=O)C1=C(Cn2cncn2)NC(C)=C(C#N)C1c1ccc(F)cc1Cl` (stereo not given), the IC50 was 800 nM on Cytochrome P450 3A4, 4600 nM at Androgen receptor, 100 nM on Cytochrome P450 2C9 and greater than 10000 nM at Cytochrome P450 2D6.

As for `COC(=O)C1=C(Cn2cnnn2)NC(C)=C(C#N)C1c1ccc(F)cc1Cl` (stereo not given), the outcome in the series on Rattus norvegicus [1] and in the series with Rattus norvegicus [2] was Active. Further, the IC50 against Cytochrome P450 3A4 was 1200 nM; against Androgen receptor it was 2700 nM; at Cytochrome P450 2C9, 1900 nM; on Cytochrome P450 2D6, greater than 10000 nM. In series [3], this compound had a half-life of 4.84 h. Further, in series [4], the clearance was found to be 14.1 mL/min/kg. Besides, in series [5], the Vd came out at 0.9 L/kg.

Regarding `COC(=O)C1=C(Cn2ccnc2)NC(C)=C(C#N)C1c1ccc(F)cc1Cl` (stereo not given), the IC50 against Cytochrome P450 3A4 was 200 nM; on Androgen receptor it was 3900 nM; against Cytochrome P450 2C9, 1000 nM; against Cytochrome P450 2D6, greater than 10000 nM.
